From DBAASP
In brackets after ≈: the same amount, converted by molar mass. Each block holds one molecule with its values, some of them ahead of it.

Assays:
Test in all cases: ≥ marks a high value that may be exact or a test limit, other limits are often not marked, values filed in µg/mL are converted to µM
[1] = system: Staphylococcus aureus ATCC 33591
[2] = system: Pseudomonas aeruginosa ATCC 27853
[3] = system: Staphylococcus epidermidis ATCC 35984
[4] = system: Staphylococcus aureus ATCC 25923
[5] = system: Micrococcus luteus ATCC 10240
Escherichia coli BL21AI = system: Escherichia coli BL21AI
[6] = system: Enterococcus faecalis 981
Candida glabrata 090902 = system: Candida glabrata 090902
[7] = system: Nocardia asteroides 201118
[8] = system: Psychrobacter faecalis X29
[9] = system: Neisseria gonorrhoeae FA19
[10] = system: Neisseria gonorrhoeae F62
[11] = system: Salmonella typhimurium KCTC 1926
[12] = system: Staphylococcus aureus KCCM 40510
[13] = system: Enterococcus faecium KCCM 12118
[14] = system: Enterococcus faecalis ATCC 51575
[15] = system: Pseudomonas aeruginosa KCTC 1637
[16] = system: Staphylococcus epidermidis KCTC 1917
[17] = system: Bacillus subtilis KCTC 3068
[18] = system: Enterococcus faecalis KCCM 29212
[19] = system: Enterococcus faecium ATCC 51559
[20] = system: Escherichia coli KCTC 1682
[21] = system: Staphylococcus aureus KCTC 1621

- MIC [1]: ≥ 94.8 µM
- MIC [2]: 33.5 µM (≈ 45.2 µg/mL)
- MIC [3]: ≥ 94.8 µM
- MIC [4]: 190 µM (≈ 256 µg/mL)
SMILES: CC[C@H](C)[C@H](NC(=O)[C@H](CCCCN)NC(=O)[C@@H](NC(=O)[C@H](Cc1ccccc1)NC(=O)[C@H](C)NC(=O)[C@H](CCCCN)NC(=O)CNC(=O)[C@H](Cc1ccccc1)NC(=O)[C@H](CCCCN)NC(=O)[C@H](CCCCN)NC(=O)[C@H](C)N)C(C)C)C(=O)N[C@@H](CC(C)C)C(N)=O [AKKFGKAFVKIL]

- MIC [5]: 0.107 µM (≈ 0.24 µg/mL)
- MIC (Escherichia coli BL21AI): 3.49 µM (≈ 7.81 µg/mL)
SMILES: CC[C@H](C)[C@H](NC(=O)[C@H](Cc1ccc(O)cc1)NC(=O)[C@@H](NC(=O)[C@@H]1CCCN1C(=O)[C@H](CCCN=C(N)N)NC(=O)[C@H](CC(N)=O)NC(=O)[C@H](CC(N)=O)NC(=O)CN)C(C)C)C(=O)N1CCC[C@H]1C(=O)N[C@@H](CCCN=C(N)N)C(=O)N1CCC[C@H]1C(=O)N[C@@H](CCCN=C(N)N)C(=O)N1CCC[C@H]1C(=O)N1CCC[C@H]1C(=O)N[C@@H](Cc1cnc[nH]1)C(=O)N1CCC[C@H]1C(=O)N[C@@H](CCCN=C(N)N)C(=O)N[C@@H](CC(C)C)C(=O)N[C@H](C(=O)O)C(C)C [GNNRPVYIPRPRPPHPRLV]

- MIC [6]: 3.1 µM (≈ 7.71 µg/mL)
- MIC (Candida glabrata 090902): 6.3 µM (≈ 15.7 µg/mL)
- MIC [7]: 3.1 µM (≈ 7.71 µg/mL)
- MIC [8]: ≥ 50 µM
- MIC [4]: 6.3 µM (≈ 15.7 µg/mL)
SMILES: CC[C@H](C)[C@H](NC(=O)[C@H](CC(C)C)NC(=O)CNC(=O)[C@@H]1CCCN1C(=O)[C@H](CC(C)C)NC(=O)[C@@H](N)Cc1ccccc1)C(=O)N[C@@H](CCCCN)C(=O)N[C@H](C(=O)N[C@@H](C)C(=O)N[C@H](C(=O)NCC(=O)N[C@H](C(=O)NCC(=O)N[C@@H](CO)C(=O)N[C@H](C(=O)N[C@H](C(=O)N[C@@H](CC(C)C)C(=O)N[C@H]1CSSC[C@@H](C(=O)O)NC(=O)[C@H](CCCCN)NC(=O)[C@H](CCCCN)NC(=O)[C@H]([C@@H](C)O)NC(=O)[C@H]([C@@H](C)CC)NC(=O)[C@H](CCCCN)NC1=O)[C@@H](C)CC)[C@@H](C)O)C(C)C)C(C)C)C(C)C [FLPGLIKVAVGVGSTILCKITKKC]

- MIC [5]: 27.2 µM (≈ 64 µg/mL)
- MIC (Escherichia coli BL21AI): 6.81 µM (≈ 16 µg/mL)
SMILES: CC[C@H](C)[C@H](NC(=O)[C@H](CCCN=C(N)N)NC(=O)[C@H](CCCN=C(N)N)NC(=O)[C@@H]1CCCN1C(=O)[C@@H]1CCCN1C(=O)[C@H](CCCN=C(N)N)NC(=O)[C@@H]1CCCN1C(=O)[C@H](CCCN=C(N)N)NC(=O)[C@@H]1CCCN1C(=O)[C@H](CC(C)C)NC(=O)[C@H](Cc1ccc(O)cc1)NC(=O)[C@@H]1CCCN1C(=O)[C@@H]1CCCN1C(=O)[C@H](CCCCN)NC(=O)[C@H](CC(=O)O)NC(=O)[C@@H](N)C(C)C)C(=O)N[C@@H](Cc1ccc(O)cc1)C(=O)N[C@@H](CC(N)=O)C(=O)N[C@@H](CC(N)=O)C(N)=O [VDKPPYLPRPRPPRRIYNN]

- MIC [1]: ≥ 48.5 µM
- MIC [3]: 3.03 µM (≈ 5.65 µg/mL)
- MIC [4]: 17.1 µM (≈ 32 µg/mL)
SMILES: CC[C@H](C)[C@H](NC(=O)CN)C(=O)NCC(=O)N[C@@H](CCCCN)C(=O)N[C@@H](Cc1ccccc1)C(=O)N[C@@H](CC(C)C)C(=O)N[C@@H](CCCCN)C(=O)N[C@@H](CCCCN)C(=O)N[C@@H](C)C(=O)N[C@@H](CCCCN)C(=O)N[C@@H](CCCCN)C(=O)N[C@@H](Cc1ccccc1)C(=O)NCC(=O)N[C@@H](CCCCN)C(=O)N[C@@H](C)C(=O)N[C@@H](Cc1ccccc1)C(=O)N[C@H](C(N)=O)C(C)C [GIGKFLKKAKKFGKAFV]

- MIC [9]: ≥ 224 µM
- MIC [10]: 10 µM (≈ 20.3 µg/mL)
SMILES: CC(C)C[C@H](NC(=O)[C@H](CCCNC(=N)N)NC(=O)CNC(=O)CNC(=O)[C@@H](N)CCCNC(=N)N)C(=O)N[C@@H](C)C(=O)N[C@@H](Cc1ccc(O)cc1)C(=O)N[C@@H](C)C(=O)N[C@@H](CCCNC(=N)N)C(=O)N[C@@H](CCCNC(=N)N)C(=O)N[C@@H](CCCNC(=N)N)C(=O)N[C@@H](Cc1ccccc1)C(=O)N[C@@H](C)C(=O)N[C@H](C(=O)N[C@@H](C)C(=O)N[C@H](C(=O)NCC(=O)N[C@@H](CCCNC(=N)N)C(N)=O)C(C)C)C(C)C [RGGRLAYARRRFAVAVGR]

- MIC [11]: 3.78 µM (≈ 4 µg/mL)
- MIC [12]: 7.57 µM (≈ 7.99 µg/mL)
- MIC [13]: 7.57 µM (≈ 7.99 µg/mL)
- MIC [14]: 0.946 µM (≈ 0.999 µg/mL)
- MIC [15]: 7.57 µM (≈ 7.99 µg/mL)
- MIC [16]: 3.78 µM (≈ 4 µg/mL)
- MIC [17]: 3.78 µM (≈ 4 µg/mL)
- MIC [18]: 0.946 µM (≈ 0.999 µg/mL)
- MIC [19]: 1.89 µM (≈ 2 µg/mL)
- MIC [20]: 3.78 µM (≈ 4 µg/mL)
- MIC [21]: 7.57 µM (≈ 7.99 µg/mL)
SMILES: CC[C@H](C)[C@H](NC(=O)[C@H](CS)NC(=O)[C@H](CC(C)C)NC(=O)[C@@H](N)CC(C)C)C(=O)N[C@@H](C)C(=O)N[C@@H](CC(C)C)C(=O)N[C@@H](CCCN=C(N)N)C(=O)N[C@@H](CCCCN)C(=O)N[C@@H](CCCCN)C(N)=O [LLCIALRKK]

- MIC [11]: 7.57 µM (≈ 7.99 µg/mL)
- MIC [12]: 7.57 µM (≈ 7.99 µg/mL)
- MIC [13]: 3.78 µM (≈ 4 µg/mL)
- MIC [14]: 30.3 µM (≈ 32 µg/mL)
- MIC [15]: 7.57 µM (≈ 7.99 µg/mL)
- MIC [16]: 7.57 µM (≈ 7.99 µg/mL)
- MIC [17]: 3.78 µM (≈ 4 µg/mL)
- MIC [18]: 7.57 µM (≈ 7.99 µg/mL)
- MIC [19]: 1.89 µM (≈ 2 µg/mL)
- MIC [20]: 7.57 µM (≈ 7.99 µg/mL)
- MIC [21]: 7.57 µM (≈ 7.99 µg/mL)
SMILES: CC[C@H](C)[C@H](NC(=O)[C@H](CCCCN)NC(=O)[C@H](CCCN=C(N)N)NC(=O)[C@H](CC(C)C)NC(=O)[C@H](C)NC(=O)[C@H](CCCCN)NC(=O)[C@H](CS)NC(=O)[C@H](CC(C)C)NC(=O)[C@@H](N)CC(C)C)C(N)=O [LLCKALRKI]

- MIC [9]: 7.65 µM (≈ 11.1 µg/mL)
- MIC [10]: 1.1 µM (≈ 1.6 µg/mL)
SMILES: CC(C)C[C@H](N)C(=O)N[C@H]1CSSC[C@@H](C(=O)N[C@H](C(N)=O)C(C)C)NC(=O)[C@H](C(C)C)NC(=O)[C@H](C)NC(=O)[C@H](Cc2ccccc2)NC(=O)[C@H](CCCN=C(N)N)NC(=O)[C@H](CCCN=C(N)N)NC(=O)[C@H](CCCN=C(N)N)NC(=O)[C@H](C)NC(=O)[C@H](Cc2ccc(O)cc2)NC1=O [LCYARRRFAVCV]

- MIC [6]: ≥ 50 µM
- MIC [7]: 12.5 µM (≈ 23.6 µg/mL)
- MIC [4]: 25 µM (≈ 47.2 µg/mL)
SMILES: CC[C@H](C)[C@H](NC(=O)[C@H](CCCCN)NC(=O)[C@@H]1CCCN1C(=O)[C@H](CC(C)C)NC(=O)[C@H](CC(C)C)NC(=O)[C@@H](NC(=O)[C@H](CO)NC(=O)[C@H](CC(C)C)NC(=O)[C@H](C)NC(=O)CNC(=O)[C@H](Cc1ccccc1)NC(=O)[C@H](CC(C)C)NC(=O)[C@H](CC(C)C)NC(=O)[C@@H]1CCCN1C(=O)[C@H](CC(C)C)NC(=O)[C@@H](N)Cc1ccccc1)[C@@H](C)O)C(=O)N[C@@H](Cc1ccccc1)C(N)=O [FLPLLFGALSTLLPKIF]
